Source: paper PMC11048155, “Antiviral Drug Candidate Repositioning for Streptococcus suis Infection in Non-Tumorigenic Cell Models” (Biomedicines, 2024)
Values after ≈ are worked out from the molar mass of the structure shown. “Also recorded” adds a separate entry of the source. Where two headings read alike, the source gives them in different places.

Columns and labels:
porcine hepatocytes = experiment: IL-6 production, porcine IL-6 ELISA; type: cell-based; settings: S. suis 10^4 CFU/mL in combination with inhibitor, 24 h
Protocol: (§1) After 24 h incubation time, the cell-free supernatants from […], MI-471, and MI-476 exposure were sampled from IPEC-J2 cells and from porcine hepatocytes. The changes in cytokine levels were detected with porcine IL-6 ELISA kits. The manufacturer’s instructions were followed to treat the supernatants and measured by a SpectraMax iD3 microplate reader at 450 nm.

IPEC-J2 cells [1] = experiment: IL-6 production, porcine IL-6 ELISA; type: cell-based; settings: IPEC-J2, S. suis 10^4 CFU/mL in combination with inhibitor, 24 h
Protocol: as §1

monkey CYP1A2 enzymes = settings: cited from earlier work
[2] = test system: Escherichia (E.) coli (ATCC 11775); experiment: MIC measurement (broth microdilution); type: cell-based; settings: source ATCC, 18–24 h at 37 °C
[3] = test system: primary porcine hepatocytes; experiment: Cell viability, Neutral red assay; type: cell-based; settings: S. suis 10^4 CFU/mL in combination with inhibitor 50 µM, 24 h
Protocol: Porcine cryopreserved primary hepatocytes were obtained from Primacyt Cell Culture Company (Schwerin, Germany). Lonza Group Ltd. (Biocenter Ltd., Szeged, Hungary) supplied the thawing, plating, and maintenance media. The cytotoxic effects of inhibitors MI-432, MI-471, and MI-476 were tested on the viability of primary hepatocytes using the NR method. The hepatocytes were cultivated on a 96-well plate for 24 h, followed by incubation with the inhibitors at 0, 50, and 100 µM for an additional 24 h. Only cell maintenance medium was used to incubate the control cells. The plate underwent incubation together with NR dye for 2 h. Hepatocyte viability was recorded at 540 nm with a SpectraMax iD3 microplate reader.

IPEC-J2 cells [4] = experiment: Cell viability, Neutral red assay; type: cell-based, porcine; settings: IPEC-J2, S. suis 10^4 CFU/mL in combination with inhibitor 50 µM, 24 h
Text: The IPEC-J2 cell line is unique as it is non-transformed and non-tumorigenic. IPEC-J2 cells are derived from intestinal enterocytes extracted from the jejunum of neonatal unsuckled piglets. IPEC-J2 cells were gifted by Dr. Jody Gookin (Department of Clinical Sciences, College of Veterinary Medicine, North Carolina State University, Raleigh, NC, USA). […] The cells had undergone passage around 50 times. […] This experiment included plain DMEM/F12 medium as a control. At the end of the final treatments (24 h), the ratio of viable cells was measured by absorbance at 540 nm wavelength with a SpectraMax iD3 microplate reader.

[5] = test system: Staphylococcus (S.) aureus (ATCC 10832); experiment: MIC measurement (broth microdilution); type: cell-based; settings: source ATCC, 18–24 h at 37 °C
[6] = test system: Salmonella (S.) enterica (clinical isolate); experiment: MIC measurement (broth microdilution); type: cell-based; settings: source 204/22, 18–24 h at 37 °C
Text: Bacterial strains used in this study were as follows: S. suis serotype 2 (ATCC 958242) Staphylococcus (S.) aureus (ATCC 10832), Escherichia (E.) coli (ATCC 11775), Pseudomonas (P.) aeruginosa (ATCC 27853), Pasteurella (P.) multocida (clinical isolate), Burkholderia (B.) cepacia (clinical isolate), Salmonella (S.) enterica (clinical isolate), and Enterococcus (E.) faecalis (clinical isolate). Of the clinical isolates used in this study, P. multocida is of porcine origin, B. cepacia is of human origin, and S. enterica and E. faecalis are of poultry origin. The bacterial strains were stored in the Microbiology Laboratory of the University of Veterinary Medicine, Budapest, at a temperature of −80 °C. Bacterial strains were inoculated the day before the test in 5 mL of Cation-Adjusted Mueller–Hinton Broth (CAMHB) and incubated for 18–24 h at 37 °C. The initial inoculum concentration used for the MIC assay was 5 × 10^5/mL. All wells except the first column of the working plates were filled with 90 µL CAMHB. A stock solution of inhibitors at 800 µM was then prepared, 180 µL of which was measured into the first column of plates and used to prepare a 2-based dilution on 96-well plates. After the 10th column, the tips were discarded with the 90 µL excess solution so that each column contained 90 µL of solution. Each bacterial strain was tested in a single row on the working plates. A bacterial suspension diluted to 25× was prepared on an auxiliary plate for bacterial inoculation by loading 240 µL of TSB per column of plates and adding 10–10 µL of bacterial strain suspension per well. In the next step, the isolated bacterial strains were inoculated onto the plates. Starting from column 11 (positive control) of the plates containing dilution row 2, 10 µL of bacterial suspension was added to each well, working backward. Column 11 served as a positive control (containing only bacterial suspension and broth), while column 12 served as a negative control (containing only broth). The microplates were then incubated at 37 °C for 18–24 h, and the MIC values were assessed in comparison to positive controls.

IPEC-J2 cells [7] = experiment: EC H2O2 production, Amplex red method; type: cell-based, porcine; settings: 24 h
Protocol: For oxidative status measurements, inhibitors MI-432, MI-471, or MI-476 were used at 50 µM in the absence and presence of S. suis for 24 h in IPEC-J2 cells and in primary porcine hepatocytes on 24-well plates. An Amplex red hydrogen peroxide assay kit was used to monitor EC hydrogen peroxide (H₂O₂) production in IPEC-J2 cells and in hepatocytes. Following the manufacturer’s instructions, cell-free supernatants were collected and mixed with the Amplex red working solution (in a ratio of 1:1). A Victor X2 2030 fluorometer was used to detect fluorescence intensity at wavelengths 530 nm and 590 nm for excitation and emission, respectively.

SARS-CoV-2 = test system: SARS-CoV-2; set-up: method as in PMID 32703818; settings: human airway cells, synergistically in combination with furin inhibitor MI-1851; cited from earlier work
S. suis serotype 2 = experiment: MIC measurement (broth microdilution); type: cell-based, Streptococcus suis; settings: source 672/22, 18–24 h at 37 °C
[8] = test system: Enterococcus (E.) faecalis (clinical isolate); experiment: MIC measurement (broth microdilution); type: cell-based
[9] = test system: Burkholderia (B.) cepacia (clinical isolate); experiment: MIC measurement (broth microdilution); type: cell-based
[10] = test system: Pseudomonas (P.) aeruginosa (ATCC 27853); experiment: MIC measurement (broth microdilution); type: cell-based; settings: source ATCC, 18–24 h at 37 °C
[11] = test system: Pasteurella (P.) multocida (clinical isolate); experiment: MIC measurement (broth microdilution); type: cell-based; settings: source 380/22, 18–24 h at 37 °C
[12] = test system: S. suis strains isolated from pigs; settings: cited from earlier work; for S. suis strains found to be sensitive: strains isolated from pigs, European VetPath survey 2005–2012; for S. suis strains sensitive: same survey (VetPath)
CYP2D6 = CYP2D6 (Homo sapiens, UniProt P10635); experiment: CYP enzyme fluorometric activity measurement, human hepatic microsomes; settings: reference inhibitor at 3 µM; p < 0.05
Sequence of CYP2D6 (P10635 whole entry): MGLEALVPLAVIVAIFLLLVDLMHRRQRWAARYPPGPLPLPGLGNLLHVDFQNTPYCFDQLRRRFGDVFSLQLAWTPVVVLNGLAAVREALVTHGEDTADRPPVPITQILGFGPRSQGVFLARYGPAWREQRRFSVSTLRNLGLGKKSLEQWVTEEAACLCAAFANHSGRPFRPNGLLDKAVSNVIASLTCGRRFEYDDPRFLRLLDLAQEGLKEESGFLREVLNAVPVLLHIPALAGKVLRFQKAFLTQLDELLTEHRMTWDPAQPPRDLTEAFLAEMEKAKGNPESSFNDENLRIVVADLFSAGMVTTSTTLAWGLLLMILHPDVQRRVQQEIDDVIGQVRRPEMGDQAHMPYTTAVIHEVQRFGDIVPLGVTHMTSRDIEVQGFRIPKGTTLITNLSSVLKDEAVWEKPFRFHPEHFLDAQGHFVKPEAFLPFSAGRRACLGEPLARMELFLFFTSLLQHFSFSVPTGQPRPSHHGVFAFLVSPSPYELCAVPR
Protocol: (§2) The Biovision CYP assays (BioVision, Inc., Kampenhout, Belgium) employ non-fluorescent CYP2D6, 2C9, 2C19, 1A2, or 3A4 substrates able to undergo transformation into highly fluorescent detectable metabolites. […] Human hepatic microsomal supernatants were prepared (Gibco, Biocentre, Szeged, Hungary protein concentration: 20 mg/mL) separately by mixing 30 µL with 2425 µL assay buffer and with 50 µL nicotinamide adenine dinucleotide phosphate (NADPH) generating system (100×). […] Control measurements were performed in the absence of the inhibitors.
(§3) In background controls, only assay buffer excluding microsomes and test compounds was used in a volume of 70 µL. Subsequently, after incubation at 37 °C for 15 min, 30 µL of the suitable CYP substrate/NADP+ mixture was incorporated into each well, resulting in a final reaction volume of 100 µL/well. The obtained microsomal protein content was assessed using the bicinchoninic acid protein assay kit (Pierce BCA kit, Thermo Fisher Scientific, Waltham, MA, USA). In each assay, the microsomal protein concentration was calibrated to 100 µg/well. The fluorescence intensities were measured with a fluorometer (Victor X2 2030, Perkin Elmer, Waltham, MA, USA) using λex/em = 406/468 nm for CYP1A2 and for CYP2C19, λex/em = 415/502 nm for CYP2C9, λex/em = 390/468 nm for CYP2D6, and λex/em = 535/587 nm for CYP3A4 assays.

CYP1A2 = biological target: T1, CYP1A2 (Homo sapiens, UniProt P05177); experiment: as above; settings: reference inhibitor at 6 µM; p < 0.001
T1 sequence (P05177 1-516): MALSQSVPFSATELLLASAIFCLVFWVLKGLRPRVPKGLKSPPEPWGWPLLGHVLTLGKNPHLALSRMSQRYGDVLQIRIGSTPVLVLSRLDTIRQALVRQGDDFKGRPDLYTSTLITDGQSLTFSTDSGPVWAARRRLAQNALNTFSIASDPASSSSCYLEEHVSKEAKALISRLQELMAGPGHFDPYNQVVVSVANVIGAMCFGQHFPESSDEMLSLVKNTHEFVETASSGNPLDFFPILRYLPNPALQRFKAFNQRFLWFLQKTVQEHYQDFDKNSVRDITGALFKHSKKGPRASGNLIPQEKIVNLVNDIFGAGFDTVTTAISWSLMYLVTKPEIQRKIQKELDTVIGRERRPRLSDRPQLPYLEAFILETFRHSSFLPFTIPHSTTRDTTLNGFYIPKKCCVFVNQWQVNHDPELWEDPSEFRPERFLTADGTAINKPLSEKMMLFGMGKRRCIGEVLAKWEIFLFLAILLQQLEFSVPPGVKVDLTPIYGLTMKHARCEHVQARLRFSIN
Protocol: as §2, §3

[13] = E. fecalis, source 442, 18–24 h at 37 °C, read-out: MIC
[14] = B. cepacia, source 20-10299, 18–24 h at 37 °C, read-out: MIC

N=C(N)c1cccc(C[C@H](NS(=O)(=O)c2cccc(-c3ccc(Cl)cc3Cl)c2)C(=O)N2CCC(CCN)CC2)c1 [MI-432]
IL-6 levels (porcine hepatocytes): significant anti-inflammatory effects | IL-6 levels (IPEC-J2 cells [1]): significant anti-inflammatory effects | inhibition of monkey CYP1A2 enzymes (monkey CYP1A2 enzymes): significant inhibition | MIC [2]: > 800 µM | cell viability [3]: significantly decreased cell viability; also recorded: reduction in the number of viable cells | cell viability (IPEC-J2 cells [4]): slightly less worsening of the cells; also recorded: reduction in the number of viable cells | MIC ([5]; read-out: MIC): 50 µM (≈ 30.1 µg/mL) | MIC [6]: > 800 µM | EC H2O2 production (IPEC-J2 cells [7]; IPEC-J2, S. suis 10^4 CFU/mL in combination with inhibitor 50 µM): unchanged H₂O₂ production; also recorded: antioxidant properties | EC H2O2 production (IPEC-J2 cells [7]; IPEC-J2, inhibitor alone 50 µM): unchanged H₂O₂ production | efficacy against SARS-CoV-2 (SARS-CoV-2): effective | MIC (S. suis serotype 2; Streptococcus suis): 1.5 µM (≈ 0.904 µg/mL) | MIC (S. suis serotype 2): < 1.5625 µM | MIC (S. suis serotype 2; listed as 432): <1.5625 µM | MIC ([8]; Enterococcus): > 800 µM | MIC [9]: 800 µM (≈ 482 µg/mL)

COc1ccc(-c2cccc(S(=O)(=O)N[C@@H](Cc3cccc(C(=N)N)c3)C(=O)N3CCC(N)CC3)c2)c(OC)c1 [MI-472]
MIC [2]: >800 µM | MIC ([5]; read-out: MIC): 800 µM (≈ 453 µg/mL) | MIC [10]: >800 µM | MIC [6]: >800 µM | MIC [11]: 400 µM (≈ 226 µg/mL) | MIC (S. suis serotype 2): 50 µM (≈ 28.3 µg/mL) | MIC [8, 13]: >800 µM | MIC [9, 14]: 800 µM (≈ 453 µg/mL)

COc1ccc(-c2cccc(S(=O)(=O)N[C@@H](Cc3cccc(C(=N)N)c3)C(=O)N3CCC(NC(=O)NC(C)(C)C)CC3)c2)c(OC)c1 [MI-485]
MIC [2]: >800 µM | MIC [5]: 100 to 200 µM | MIC ([5]; read-out: MIC): 200 µM (≈ 133 µg/mL) | MIC [10]: >800 µM | MIC [6]: >800 µM | MIC [11]: >800 µM | MIC (S. suis serotype 2): 50 µM (≈ 33.2 µg/mL) | MIC [8, 13]: >800 µM | MIC [9, 14]: 800 µM (≈ 532 µg/mL)

COc1ccc(-c2cccc(S(=O)(=O)N[C@@H](Cc3cccc(C(=N)N)c3)C(=O)N3CCN(C(=O)NC4CCCCC4)CC3)c2)c(OC)c1 [MI-1900, reference compound]
efficacy against SARS-CoV-2 (SARS-CoV-2): effective

CO/N=C(\C(=O)N[C@@H]1C(=O)N2C(C(=O)O)=C(CSC(=O)c3ccco3)CS[C@H]12)c1csc(N)n1 [ceftiofur]
S. suis strains found to be sensitive [12]: 97%

CCN1CCN(c2cc3c(cc2F)c(=O)c(C(=O)O)cn3C2CC2)CC1 [enrofloxacin]
S. suis strains sensitive [12]: more than 95%

CS(=O)(=O)c1ccc([C@@H](O)[C@@H](CF)NC(=O)C(Cl)Cl)cc1 [florfenicol]
S. suis strains sensitive [12]: more than 95%

C=C[C@H]1C[N@@]2CC[C@H]1C[C@@H]2[C@@H](O)c1ccnc2ccc(OC)cc12 [quinidine]
CYP2D6 activity (CYP2D6): significantly suppressed

CN(C)[C@@H]1C(O)=C(C(N)=O)C(=O)[C@@]2(O)C(O)=C3C(=O)c4c(O)cccc4[C@@](C)(O)[C@H]3C[C@@H]12 [tetracycline]
S. suis strains sensitive [12]: 4%

O=c1cc(-c2ccccc2)oc2c1ccc1ccccc12 [α-naphthoflavone, reference compound]
CYP1A2 activity (CYP1A2): significantly suppressed

amoxicillin–clavulanic acid
S. suis strains found to be sensitive [12]: 100%
